This note sets out measurements from patent US8318812B2, “Therapeutic agents for the treatment of lymphoid malignancies” (The Ohio State University Research Foundation, priority 2006, dated 2012).

As a reminder, the IC50 is the point on the concentration scale where inhibition reaches its midpoint. Low readings indicate greater potency in that assay, high ones weaker potency in that assay.

For data set [1], the system named is acute myeloid leukemia (AML) cell lines. Nature of the data set: MTS proliferation assay in AML cell lines. Format: cell-based. The note with it: 48 hours. The method, then:
Cell cultures were exposed for 48 hours to vehicle control and increasing concentrations of FTY720, and subsequently subjected to MTS assay per manufacturer's instructions. Mean concentrations (FIG. 9A) at which proliferation was inhibited by 50% (IC50) and representative dose curves (FIG. 9B) are shown. […] Using MTS assay, inhibition of cell proliferation for various derivatives was examined.
On the technique in general: Formazan colour is commonly taken as a measure of viable cells.

Another data set has as its system AML cell lines. The data set is described as follows: Cell cycle analysis (propidium iodide DNA content) in AML cell lines. The data set is classed as cell-based. The following applies: 1 uM and 10 uM, 48 hours. The method, then: Cell suspensions were treated with vehicle control, 1 uM, and 10 uM FTY720 for 48 hours. After fixation in ethanol, samples were stained with propidium iodide, and assessed for DNA content. Percentage of cells in subG1, G1, S, and G2-M for each cell line are depicted (FIG. 11A) with representative plots below for MV411 (FIG. 11B). Although cell cycle arrest is not seen, induction of apoptosis is noted by the increased fraction of sub G1 with FTY720 treatment.

Another data set relates to primary MCL cells. The data set is described as follows: Annexin V/PI toxicity in primary MCL cells. The note with it: Homo sapiens, WinNolin sigmoid inhibitory model. Format: cell-based. The method, then: (§1) Primary MCL cells were isolated from PBMC (with informed patient consent under a protocol approved by IRB) as described before. All the MCL patients were identified as outlined by the World Health Organization (WHO) classification. Human mantle cell lymphoma patient cell lines (Mino and Jeko) were obtained from Dr. Raymond Lai. Primary cells or MCL cell lines were incubated in RPMI 1640 media, supplemented with 10%-20% heat-inactivated fetal bovine serum, 2 mM L-glutamine and penicillin (100 U/mL)/streptomycin ([…]) at 37° C. in an atmosphere of 5% CO2. FTY720 was synthesized as previously described. Toxicity was determined by flow cytometry using Annexin-V-FITC and Propidium Iodide (PI) staining. Apoptotic cells were identified as Annexin-V+ and/or PI+ cells. Cells excluding both FITC and PI were considered viable. Western Blotting was performed as described previously using indicated antibodies. The PARP (Ab-2) and Caspase 9 antibodies were purchased from Oncogene/Calbiochem/EMD Biosciences (San Diego, Calif.). Cyclin D1, Akt, Actin, Mcl-1, p-ERK, ERK and Bcl-2 were obtained from Santa Cruz biotech (Santa Cruz, Calif.).
(§2) Several therapeutic agents, including fludarabine, chlorambucil, 2-chloro-2-deoxyadenosine and glucocorticoids, induce toxicity in B cell malignancies through activating caspases, the cysteine proteases of CED3/ICE family. […]

Data set [2] has as its system Mino cells. Nature of the data set: Annexin V/PI toxicity in Mino cells. Format: cell-based, Human. The note with it: Homo sapiens, WinNolin sigmoid inhibitory model. The method, then: as §1
Several therapeutic agents, including fludarabine, chlorambucil, 2-chloro-2-deoxyadenosine and glucocorticoids, induce toxicity in B cell malignancies through activating caspases, the cysteine proteases of CED3/ICE family. Inhibition of these caspases results in abrogation of apoptosis mediated by the toxic stimuli. To determine if caspase activation is involved in FTY720-induced cytotoxicity in MCL, we pretreated Mino cells with 150 μM broad spectrum caspase inhibitor z-VAD-fmk. […] Activation of caspases results in cleavage of key cellular proteins including poly-ADP-ribose polymerase (PARP).

Data set [3] deals with Mino cells. The data set is described as follows: Cell cycle analysis by flow cytometry in Mino cells. Format: cell-based, Human. The following applies: compared to vehicle control. The method, then: Deregulated cyclin D1 expression contributes to cell cycle defects in MCL cells. […] Mino cells were treated with FTY720 for 12, 24 and 48 hrs and subjected to cell cycle analysis by flow cytometry. […] This decrease in S phase is entry is further reflected by accumulation of cells in G1 phase of the cell cycle.
A general note: In flow cytometry, cells or beads pass a laser one at a time.

For data set [4], the system named is 697-neo and 697-Bcl-2 cell lines. Nature of the data set: Annexin V/PI viability in 697-neo and 697-Bcl-2 cells. The following applies: 24 hours. Format: cell-based, Human. The procedure:
Cells: Blood was obtained from patients with B-cell CLL with informed consent under a protocol approved by the hospital internal review board. All patients examined in this series had immunophenotypically defined CLL as outlined by the modified 96 National Cancer Institute criteria. B-CLL cells were isolated from freshly donated blood using ficoll density gradient centrifugation (Ficoll-Paque Plus, Amershan Biosciences, Piscataway, N.J.). Isolated mononuclear cells were incubated in RPMI 1640 media (Gibco/Invitrogen, Carlsbad, Calif.) supplemented with 10% heat-inactivated fetal bovine serum (FBS, Hyclone Laboratories, Logan, Utah), 2 mM L-glutamine (Invitrogen, Carlsbad, Calif.), and penicillin (100 U/mL)/streptomycin (100 μg/ml) [Sigma-Aldrich, St. Louis] at 37° C. in an atmosphere of 5% CO2. Freshly isolated B-CLL cells were used in all experiments described herein. […]
Analysis of cell viability and apoptosis: The cell viability was carried out by dual staining with Annexin V conjugated to flourescein-isothyocyanate (FITC) and Propidium iodide (PI) as described previously. Briefly, 1×10^6 cells were stained with Annexin V-FITC (BD Pharmingen) and Propidium iodide (BD Pharmingen) for 15 minutes in dark and analyzed by flow cytometry using a Beckman-Coulter EPICS XL cytometer (Beckman-Coulter, Miami, Fla.). […]

A further data set concerns PARP. Nature of the data set: Western blot of PARP processing in Mino cells. Format: cell-based, Human. The note with it: Mino cells 24 hrs post treatment. The method, then:
as §1, §2
A general note: A western blot detects proteins with antibodies after separation by electrophoresis.

Each structure is given as a SMILES string.

As for `CCCCCCCCc1ccc(CCC(N)(CO)CO)cc1.Cl` [FTY720, 2-Amino-2-[2-(4-octylphenyl)ethyl]propane 1,3-diol hydrochloride], the “proliferation of AML cell lines (MTS)” value in data set [1] is recorded as “inhibits proliferation”. For the same compound, in the data set with AML cell lines, the “cell cycle arrest in AML cell lines” value is “does not cause cell cycle arrest”. The IC50 in the data set with primary MCL cells came to 10.7 µM; with Mino cells [2], 11.9 µM. The “reduction in cells in S-phase” value in the data set with Mino cells [3] is listed as approximately 48%. Further, the “cellular cytotoxicity in 697-neo versus 697-Bcl-2 over expressing cell line” value in data set [4] is recorded as “comparable levels of cellular cytotoxicity”. Besides, the PARP processing result with PARP is listed as “PARP processing comparable to the levels seen with Fludarabine”.
